This passage reports inhibition and AC50 results from paper PMC3477264 (ACS chemical biology, 2012).

Usually inhibition stands for the change of the read-out against control, counted positive when it falls. As usually defined, the AC50 is the concentration at which the activity in the assay is half-maximal.

The target of assay [1] is T1, cyclodiphosphate synthase IspF (Escherichia coli, UniProt P62617).
T1 sequence (P62617 1-159): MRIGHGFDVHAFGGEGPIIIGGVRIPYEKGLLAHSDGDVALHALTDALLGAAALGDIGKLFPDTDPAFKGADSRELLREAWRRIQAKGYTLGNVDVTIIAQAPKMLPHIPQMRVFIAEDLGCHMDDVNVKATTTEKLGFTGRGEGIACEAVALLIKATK
The assay can be described thus: HPLC-based assay, […] inhibition of the IspF-MEP complex at […] FDP. In kind it is biochemical. The following applies: read-out: % inhibition at 500 μM.

Assay [2] has as its target T1, cyclodiphosphate synthase IspF. The assay can be described thus: HPLC-based assay of CMP formation by purified IspF. In kind it is biochemical.

`CC(C)=CCC/C(C)=C/CC/C(C)=C/CO[P@@](=O)(O)OP(=O)(O)O` (stereo in doubt) [FDP, farnesyl diphosphate]: the inhibition at 500 µM in assay [1] was found to be 43%.
In assay [2], `C[C@](O)(CO)[C@H](O)CO` [ME, 2C-methyl-D-erythritol] had an AC50 of 106 ± 14 µM.
As for `C[C@](O)(CO)[C@H](O)COP(=O)(O)O` [MEP, 2C-methyl-D-erythritol 4-phosphate], the AC50 in assay [2] was 133 ± 33 µM.
